Test [1] can be described thus: Body composition and body fat analysis after CLA, high protein diet or exercise treatment. Format: in vivo, Sprague Dawley rats. The conditions noted are these: rats. From the text:
(§1) Four-week old male Sprague Dawley rats were allowed to acclimate for two weeks on a control diet comprising AIN-93M (American Institute of Nutrition purified diet formula for maintenance of mature rodents). Rats were divided into four groups of 12. Group 1 was fed the control diet supplemented with CLA (Table 1). Group 2 was fed a modified diet increased in protein and decreased in carbohydrate (Table 1). Group 3 was fed the control diet, and was given the opportunity to engage in supplemental exercise. Specifically, a running wheel was placed in the cage of each rat in group 3, and daily use of the wheel was monitored by recording each turn of the wheel using a sensor connected to a computer. Group 4 was fed the control diet (Table 1).
(§2) Measurements were taken at 7 and 60 days after initiation of the feeding or exercise protocols. At the completion of the 60-day feeding protocol, all animals were sacrificed and analyses were performed.
Body composition analyses were performed on the test animals.

Test [2] in a line: Biochemical analyses of blood (fasting glucose, glucagon, insulin). Format: in vivo, Sprague Dawley rats. The conditions noted are these: for Fasting blood glucagon / Fasting blood glucose / Fasting blood insulin: rats.
Source text: as §1, §2

Setting [3] is: after 60 days, compared with the control diet and the exercise treatment.

With conjugated linoleic acid [CLA], the Body fat result in test [1] (60 days, compared with the Control group) was “reduced body fat”. Further, in test [1] (following 60 days of treatment), the Retroperitoneal fat is reported as 10.07 g and the Total fat pad was 31.80 g. Besides, in test [2] (setting [3]), the Blood glucose level result was “reduced blood glucose level” and the Blood insulin result is reported as “reduced blood insulin”. Also, in test [2] (Day 7), the Fasting blood glucagon amounted to 111.65 pg/mL, the Fasting blood glucose is 10.53 mmol/L and the Fasting blood insulin is given as 233.58 pmol/L. In test [2] (Day 60), this substance gave a Fasting blood glucagon of 120.77 pg/mL, a Fasting blood glucose of 11.08 mmol/L and a Fasting blood insulin of 172.66 pmol/L.

For the origin of these results see patent publication US20140309137A1, “GENE EXPRESSION PROFILES ASSOCIATED WITH LEAN PHENOTYPE AND USES THEREOF” (NESTEC SA, priority 2008, published 2014).
